Results from patent publication US4816482A, “Radioprotective agents having an amino-thioalkyl structure” (priority 1983, dated 1989).
“Also recorded” adds a separate entry of the source. Counter-ions that a name gives are not always drawn. Like-named read-outs stand apart in the source and are kept apart here.

Tests used:
[1] = Acute toxicity (LD50), i.p.; type: in vivo, mice; details: mouse, in vivo, ip
[2] = tested on: mice; assay: Acute toxicity (LD50), i.p.; type: in vivo; details: for toxicity (in words): mouse, in vivo
[3] = tested on: mice; assay: Radioprotective activity: survival at the 30th day after irradiation; type: in vivo; details: for radioprotective activity (in words): mouse, in vivo; for responders at 600 mg/kg: 600 mg/kg i.p.
Protocol: This study of radioprotective activity was carried out according to a technique described by M. Fatome at al., Eur. J. Med. Chem. 1977, 12, (1), 93. […] This dose is equal to 950 Rad.
More complete studies are recorded in Table II.

[4] = tested on: mice; details: cited from earlier work
[5] = tested on: bone marrow; assay: FRD on bone marrow; details: in vivo
[6] = tested on: EMT 6 tumours; assay: Gain factor (bone marrow FRD/tumour FRD) on EMT 6 tumours; type: in vivo; details: 5×10^-1 survival level
[7] = tested on: normal tissues / tumours; assay: Selectivity of protection: normal tissues versus tumours; details: EMT6 and HT19 tumours, except if necrotised
[8] = Chemical stability; type: physicochemical; details: I 102 compared with WR 2721
[9] = tested on: normal tissues / tumours; details: literature knowledge; cited from earlier work
[10] = cited from earlier work

Work on `CC(=O)OC(CNC(=O)CN)CSC(C)=O` (stereo not drawn) [Example 32, TRIFLUOROACETATE] yielded an LD50 [1] greater than 1500 mg/kg, an LD50 ([1]; Table I) of 1500 mg/kg and an LD50 ([1]; Table II) of 1500 mg/kg. The “toxicity (in words)” value [2] was “low toxicity”, the “survival at 30 days” value ([3]; 250 mg/kg, 900 Rad) was 70% and the “survival at 30 days” value ([3]; 1,000 mg/kg, 1,100 Rad) was 80%. It also gave a responders at 1000 mg/kg ([3]; Mus musculus, light or radiation study, ip, 720 h, Table I, 1,000 mg/kg i.p., 15' before irradiation at 900 or 950 Rad, read-out: % survival at the 30th day) of 100%, a responders at 1000 mg/kg ([3]; Mus musculus, light or radiation study, ip, 720 h, Table II, 1,000 mg/kg i.p., 15' before irradiation, 900 Rad, read-out: % survival at 30 days) of 100% and a responders at 250 mg/kg ([3]; Mus musculus, light or radiation study, ip, 720 h, Table II, dose not printed (250 mg/kg in text), 15' before irradiation, 900 Rad, read-out: % survival at 30 days) of 70%. It also gave a responders at 1000 mg/kg ([3]; Mus musculus, light or radiation study, ip, 720 h, Table II, dose not printed (1,000 mg/kg in text), 15' before irradiation, 1,100 Rad, read-out: % survival at 30 days) of 80%.

In the case of `CC(=O)NCCSC(=O)CN.O=C(O)C(F)(F)F` [Example 34], the LD50 ([1]; Table II) is reported as 1000 mg/kg, the LD50 ([2]; Table I) is reported as 1,000 mg/kg and the “radioprotective activity (in words)” value [3] is reported as “slight radioprotective action”.

With `C[C@H](N)C(=O)NCCSSCCNC(=O)[C@H](C)N.O=C(O)C(F)(F)F.O=C(O)C(F)(F)F` [Example 45, N,N'-[…] DI(TRIFLUOROACETATE)] the LD50 ([1]; Table I) was 1200 mg/kg, the LD50 ([1]; Table II) was 1200 mg/kg and the “toxicity (in words)” value [2] was “low toxicity”. The responders at 600 mg/kg ([3]; Mus musculus, ip, 720 h, read-out: % survival at 30 days, Table II, 4th entry, time and Rad not given) was 50%, the responders at 150 mg/kg ([3]; Mus musculus, light or radiation study, ip, 720 h, read-out: % survival at 30 days, Table II, 150 mg/kg i.p., 15' before irradiation, 900 Rad) was 20% and the responders at 600 mg/kg ([3]; Mus musculus, light or radiation study, ip, 720 h, read-out: % survival at 30 days, Table II, 2 (hours, cut off) before irradiation, 900 Rad) was 50%. The responders at 600 mg/kg ([3]; Mus musculus, light or radiation study, ip, 720 h, read-out: % survival at 30 days, Table II, 15' before irradiation, 900 Rad) was 100%, the responders at 600 mg/kg ([3]; Mus musculus, light or radiation study, ip, 720 h, read-out: % survival at the 30th day, Table I, 15' before irradiation at 900 or 950 Rad) was 100% and the “radioprotective activity (in words)” value [3] was “good radioprotection”.

In the case of `CC(C)(N)CSS(=O)(=O)O` [H2 N--(C(CH3)2 --CH2 --S--SO3 H], the “protection (in words)” value ([4]; 600 mg/kg, J. R. Piper et al., J. Med. Chem. 1966) is given as “good protection”.

In the case of `CC(=O)SCCNC(=O)CN` [I 102, N-glycyl-S-acetylcysteamine], the LD50 [1] is reported as greater than 1500 mg/kg, the “FRD on bone marrow” value [5] is reported as 1.4 and the “gain factor (bone marrow FRD/tumour FRD)” value [6] is reported as 1.2. For the same compound, the “protection of tumours (in words)” value [7] was “does not protect tumours (or protects them to only a small extent)”.

With `NCCCNCCSP(=O)(O)O` [WR 2721] the LD50 [2] was 950 mg/kg, the “FRD on bone marrow” value [5] was 2.7 and the “gain factor (bone marrow FRD/tumour FRD)” value [6] was 1.2. The “chemical stability (in words)” value [8] was “unstable; also recorded: not very stable”, the “selectivity of protection (in words)” value [9] was “protecting normal tissues against radiation-induced damage, while allowing solid tumors to bear alone the effect of the radiation; also recorded: concentrates selectively in healthy cells and not in cancer cells; also recorded: concentrating selectively in normal tissues (and not in cancer cells); also recorded: selectively protects normal tissues against radiation-induced damage” and the “solubility in water (in words)” value [10] was “high solubility in water”.

In the case of `NCC(O)CSP(=O)(O)O` (stereo not drawn) [WR 77913], the “survival at 30 days” value ([4]; mice, 400 mg/kg (i.p.) 30 minutes before irradiation of 950, 970 Rad) is listed as 100%.

For `NCCS` [cysteamine, β-mercaptoethylamine], the “selectivity of protection (in words)” value [9] is listed as “non-selective protection of the cells”.

In the case of `N[C@@H](CS)C(=O)O` [cysteine], the “selectivity of protection (in words)” value [9] is given as “non-selective protection of the cells”.
